Measured values reported in patent US7276603B2, “Benzofuranyl-and benzothienyl-piperazinyl quinolines and methods of their use” (Wyeth, priority 2003, dated 2007).

What was measured:
5-HT transporter = 5-HT transporter (Rattus norvegicus, UniProt P31652); assay: Rat Brain 3H-Paroxetine Binding Assay (RB 5HT Transporter); conditions: rat frontal cortical membranes; 3H-paroxetine 0.1 nM, 60 min, 25° C.
Description: Rat Brain ^3H-Paroxetine Binding Assay (RB 5HT Transporter):
This assay was used to determine a compound's affinity of the 5-HT transporter.
All reactions were terminated by the addition of ice cold Tris buffer followed by rapid filtration using a Tom Tech filtration device to separate bound from free ^3H-paroxetine.

human 5-HT1A receptors = target: T1, human 5-HT1A receptors (Homo sapiens, UniProt P08908); assay: displacement of [3H] 8-OH-DPAT from the 5-HT1A serotonin receptor; assay type: binding; conditions: CHO cells stably transfected with human 5-HT1A receptors
T1 construct: expressed in transfected cells; host or cells: CHO cells
T1 sequence (P08908 1-422): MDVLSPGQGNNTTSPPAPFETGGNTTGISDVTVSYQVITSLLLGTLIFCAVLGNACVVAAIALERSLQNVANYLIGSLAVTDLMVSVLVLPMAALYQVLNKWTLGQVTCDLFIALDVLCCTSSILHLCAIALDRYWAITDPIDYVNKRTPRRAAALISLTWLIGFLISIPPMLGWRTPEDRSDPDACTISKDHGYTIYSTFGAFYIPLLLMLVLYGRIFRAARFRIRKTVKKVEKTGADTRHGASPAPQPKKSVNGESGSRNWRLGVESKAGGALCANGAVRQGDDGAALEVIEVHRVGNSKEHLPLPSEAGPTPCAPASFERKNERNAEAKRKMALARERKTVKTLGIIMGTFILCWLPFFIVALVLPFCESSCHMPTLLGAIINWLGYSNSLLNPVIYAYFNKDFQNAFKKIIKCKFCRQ

5-HT transporter, sequence (P31652 whole entry): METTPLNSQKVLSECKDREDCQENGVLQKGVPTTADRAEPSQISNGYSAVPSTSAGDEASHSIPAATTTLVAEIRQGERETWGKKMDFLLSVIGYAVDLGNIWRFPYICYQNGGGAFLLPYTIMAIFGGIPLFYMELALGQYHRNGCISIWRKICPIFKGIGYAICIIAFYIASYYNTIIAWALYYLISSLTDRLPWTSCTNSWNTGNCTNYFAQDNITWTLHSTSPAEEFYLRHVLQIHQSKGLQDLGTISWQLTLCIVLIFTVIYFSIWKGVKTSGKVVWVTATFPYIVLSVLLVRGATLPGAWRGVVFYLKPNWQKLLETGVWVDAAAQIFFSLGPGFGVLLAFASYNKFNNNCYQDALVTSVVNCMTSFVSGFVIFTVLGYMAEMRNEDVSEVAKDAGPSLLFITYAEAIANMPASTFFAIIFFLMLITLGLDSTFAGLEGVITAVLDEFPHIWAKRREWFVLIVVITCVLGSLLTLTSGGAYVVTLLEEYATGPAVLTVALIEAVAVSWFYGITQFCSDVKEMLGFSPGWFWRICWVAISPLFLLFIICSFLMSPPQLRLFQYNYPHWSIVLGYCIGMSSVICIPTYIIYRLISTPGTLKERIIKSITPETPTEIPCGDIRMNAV

Row | melting point | Ki (5-HT transporter) | Ki (human 5-HT1A receptors) | Compound
1 | 78 °C | 0.00725 µM | 0.00283 µM | COc1ccc2occ(CCN3CCN(c4cccc5cccnc45)CC3)c2c1 [Compound 21, 8-{4-[2-(5-methoxy-1-benzofuran-3-yl)ethyl]-1-piperazinyl}-quinoline]
2 | 195 to 197 °C | 0.05 µM | 0.00016 µM | COc1cccc2c1occ2[C@H]1CC[C@H](N2CCN(c3cc(F)cc4cccnc34)CC2)CC1 [Compound 60, 6-fluoro-8-{4-[4-trans(7-methoxy-1-benzofuran-3-yl)cyclohexyl]-1-piperazinyl}quinoline]
3 | 143 to 146 °C | 0.163 µM | 0.0004 µM | COc1cccc2c1occ2[C@H]1CC[C@@H](N2CCN(c3ccc(F)c4cccnc34)CC2)CC1 [Compound 57, 5-fluoro-8-{4-[4-cis(7-methoxy-1-benzofuran-3-yl)cyclohexyl]-1-piperazinyl}quinoline]
4 | 195 °C | 0.38 µM | 0.13 µM | Fc1cc(N2CCN([C@H]3CC[C@H](c4csc5ccccc54)CC3)CC2)c2ncccc2c1 [Compound 44, 8-{4-[4-trans(1-benzothien-3-yl)cyclohexyl]-1-piperazinyl}-6-fluoroquinoline]
5 | 142 to 144 °C | 0.208 µM | 0.00174 µM | Fc1ccc(N2CCN([C@H]3CC[C@@H](c4coc5ccccc54)CC3)CC2)c2ncccc12 [Compound 53, 8-{4-[4-cis(1-benzofuran-3-yl)cyclohexyl]-1-piperazinyl}-5-fluoroquinoline]
6 | 166 to 168 °C | 0.021 µM | 0.126 µM | COc1cc(N2CCN([C@H]3CC[C@H](c4csc5ccccc54)CC3)CC2)c2ncccc2c1 [Compound 46, 8-{4-[4-trans (1-benzothien-3-yl)cyclohexyl]-1-piperazinyl}-6-methoxyquinoline]
7 | 147 to 151 °C | 0.311 µM | 0.00117 µM | Fc1cc(N2CCN([C@H]3CC[C@@H](c4csc5ccccc54)CC3)CC2)c2ncccc2c1 [Compound 43, 8-{4-[4-cis(1-benzothien-3-yl)cyclohexyl]-1-piperazinyl}-6-fluoroquinoline]
8 | 195 to 197 °C | 0.046 µM | 0.00026 µM | COc1cccc2c1occ2[C@H]1CC[C@H](N2CCN(c3cccc4cccnc34)CC2)CC1 [Compound 62, 8-{4-[4-trans(7-methoxy-1-benzofuran-3-yl)cyclohexyl]-1-piperazinyl}quinoline]
9 | 148 to 150 °C | 0.259 µM | 0.00173 µM | COc1cc(N2CCN([C@H]3CC[C@@H](c4csc5ccccc54)CC3)CC2)c2ncccc2c1 [Compound 45, 8-{4-[4-cis(1-benzothien-3-yl)cyclohexyl]-1-piperazinyl}-6-methoxyquinoline]
10 | 75 to 83 °C | 0.048 µM | 0.00193 µM | COc1cccc2c1occ2[C@H]1CC[C@@H](N2CCN(c3cc(F)cc4cccnc34)CC2)CC1 [Compound 59, 6-fluoro-8-{4-[4-cis(7-methoxy-1-benzofuran-3-yl)cyclohexyl]-1-piperazinyl}quinoline]
11 | 143 to 144 °C | 0.157 µM | 0.14 µM | Clc1cc(N2CCN([C@H]3CC[C@H](c4csc5ccccc54)CC3)CC2)c2ncccc2c1 [Compound 42, 8-{4-[4-trans(1-benzothien-3-yl)cyclohexyl]-1-piperazinyl}-6-chloroquinoline]
12 | 66 to 67 °C | 0.027 µM | 0.0414 µM | COc1cccc2c1occ2[C@H]1CC[C@@H](N2CCN(c3cccc4cccnc34)CC2)CC1 [Compound 61, 8-{4-[4-cis(7-methoxy-1-benzofuran-3-yl)cyclohexyl]-1-piperazinyl}quinoline]
13 | 192 to 197 °C | 0.133 µM | 0.00414 µM | Fc1ccc2scc([C@H]3CC[C@@H](N4CCN(c5ccc(Cl)c6cccnc56)CC4)CC3)c2c1 [Compound 51, 5-chloro-8-{4-[4-cis(5-fluoro-1-benzothien-3-yl)cyclohexyl]piperazin-1-yl}quinoline]
14 | 164 to 165 °C | 0.065 µM | 0.00225 µM | Clc1cc(N2CCN([C@H]3CC[C@@H](c4csc5ccccc54)CC3)CC2)c2ncccc2c1 [Compound 41, 8-{4-[4-cis-(1-benzothien-3-yl)cyclohexyl]-1-piperazinyl}-6-chloroquinoline]
15 | 195 to 197 °C | 0.077 µM | 0.0166 µM | Fc1cc(N2CCN([C@H]3CC[C@H](c4coc5ccccc54)CC3)CC2)c2ncccc2c1 [Compound 56, 8-{4-[4-trans(1-benzofuran-3-yl)cyclohexyl]-1-piperazinyl}-6-fluoroquinoline]
16 | 162 to 164 °C | 0.038 µM | 0.0251 µM | Fc1ccc(N2CCN([C@H]3CC[C@H](c4coc5ccccc54)CC3)CC2)c2ncccc12 [Compound 54, 8-{4-[4-trans(1-benzofuran-3-yl)cyclohexyl]-1-piperazinyl}-5-fluoroquinoline]
17 | 184 to 186 °C | 0.047 µM | 1.55 µM | COc1cc(N2CCN([C@H]3CC[C@@H](c4cc5ccccc5s4)CC3)CC2)c2ncccc2c1 [Compound 70]
18 | 195 to 197 °C | 0.048 µM | – | Fc1ccc2scc([C@H]3CC[C@H](N4CCN(c5ccc(Cl)c6cccnc56)CC4)CC3)c2c1 [Compound 52, 5-chloro-8-{4-[4-trans(5-fluoro-1-benzothien-3-yl)cyclohexyl]piperazin-1-yl}quinoline]
19 | 143 to 144 °C | 0.155 µM | 0.00028 µM | Fc1cc(N2CCN([C@H]3CC[C@H](c4csc5ccc(F)cc54)CC3)CC2)c2ncccc2c1 [Compound 48, 6-fluoro-8-{4-[4-trans(5-fluoro-1-benzothien-3-yl)cyclohexyl]piperazin-1-yl}quinoline]
20 | 72 °C | 0.002 µM | 0.00269 µM | COc1ccc2occ(CCN3CCN(c4cc(Cl)cc5cccnc45)CC3)c2c1 [Compound 22, 8-{4-[2-(5-methoxy-1-benzofuran-3-yl)ethyl]-1-piperazinyl}-6-chloro-quinoline]
21 | 91 to 93 °C | 0.106 µM | 0.0163 µM | Fc1cc(N2CCN(C3CCC(c4cc5ccccc5o4)CC3)CC2)c2ncccc2c1 (centres unmarked) [Compound 69, 8-[4-(4-benzofuran-2-yl-yclohexyl)-piperazin-1-yl]-6-fluoro-quinoline]
22 | 153 to 160 °C | 0.146 µM | 0.0144 µM | COc1ccc2occ([C@H]3CC[C@@H](N4CCN(c5cc(F)cc6cccnc56)CC4)CC3)c2c1 [Compound 67, 6-fluoro-8-{4-[4-cis(5-methoxy-1-benzofuran-3-yl)cyclohexyl]piperazin-1-yl}quinoline]
23 | 152 to 155 °C | 0.121 µM | 0.00022 µM | COc1ccc2occ([C@H]3CC[C@H](N4CCN(c5cc(F)cc6cccnc56)CC4)CC3)c2c1 [Compound 68, 6-fluoro-8-{4-[4-trans(5-methoxy-1-benzofuran-3-yl)cyclohexyl]piperazin-1-yl}quinoline]
